# Values quoted from earlier work, collected in US5585244A, “Detection of retinoid X receptor subtype γ proteins” (Ligand Pharmaceuticals Incorporated, priority 1994, dated 1996).
# pIC50, pKd: −log10 of the molar value.
# Tests used:
# [1] = biological target: retinoic acid receptors (RARs); conditions: 9cRA and tRA bind with equally high affinity
# [2] = biological target: retinoid X receptors (RXRs)
# [3] = biological target: retinoid X receptors (RXRs); conditions: versus tritiated 9cRA
SMILES,pKd [1],pKd [2],pIC50 [3]
"CC1=C(/C=C/C(C)=C\C=C\C(C)=C\C(=O)O)C(C)(C)CCC1 [9cRA, 9-cis retinoic acid]",9.10 to 9.70,8.70 to 9.00,–
"CC1=C(/C=C/C(C)=C/C=C/C(C)=C/C(=O)O)C(C)(C)CCC1 [tRA, all-trans retinoic acid]",9.10 to 9.70,–,< 4.30
